Each structure is given as a SMILES string. ≈ marks a conversion by molar mass, not a printed value.

The subject of the first assay is Staphylococcus aureus. Nature of the assay: In vitro minimum inhibitory concentration (MIC) vs. Staph. aureus. The class given is cell-based. The note with it: Staphylococcus aureus; Table III; two-fold serial dilution, Brain-Heart Infusion broth, overnight; read-out: MIC vs. Staph. aureus. The protocol:
The antibacterial penam compounds of the instant invention show activity against a wide variety of gram-positive and gram-negative bacteria. […] The broth is inoculated with the bacterial culture, and with the test antibiotic, and then it is incubated overnight. On the next day, the test is read visually. The minimum inhibitory concentration (MIC) is the lowest concentration of antibiotic which prevents turbidity, i.e., which prevents growth of the microorganism. In vitro activities of several of the penam compounds of the invention are presented later in this specification.
In Table II, the minimum inhibitory concentrations (MIC's) of compounds of formula I, wherein R^2 is hydrogen, against a strain of Streptococcus pyogenes, are reported; and in Table III, minimum inhibitory concentrations of compounds of formula I, wherein R^2 is hydrogen, against a strain of Staphylococcus aureus, are presented. Because of the tautomeric nature of such tetrazole derivatives, referred to hereinbefore,each of the preparations tested also contains some of the corresponding compound of formula II, wherein R^3 is hydrogen.
Take `CC1(C)S[C@@H]2[C@H](NC(=O)[C@H](NC(=S)NC(=O)c3ccco3)c3ccccc3)C(=O)N2[C@H]1c1nn[nH]n1`: the MIC was found to be 0.78 µg/mL (≈ 1.48 µM). Still for that read-out and setting: the figure for `Cc1ccc(S(=O)(=O)NC(=O)N[C@@H](C(=O)N[C@@H]2C(=O)N3[C@@H]2SC(C)(C)[C@@H]3c2nn[nH]n2)c2ccccc2)cc1` is 6.25 µg/mL (≈ 11 µM); for `CC(C)C(NC(=N)c1ccncc1)C(=O)N[C@@H]1C(=O)N2[C@@H]1SC(C)(C)[C@@H]2c1nnn[nH]1` (some centres unmarked) it is 50 µg/mL (≈ 113 µM).

`CC1(C)S[C@@H]2[C@H](NC(=O)[C@H](NC(=O)CNC(=N)c3ccc[nH]3)c3ccccc3)C(=O)N2[C@H]1c1nnn[nH]1`: the minimum inhibitory concentration (MIC) was found to be 50 µg/mL (≈ 95.7 µM). On the same count and under the same terms, in the case of `CC1(C)S[C@@H]2[C@H](NC(=O)[C@H](NC(=O)CNC(=O)c3cc(Br)cc(Br)c3)c3ccccc3)C(=O)N2[C@H]1c1nnn[nH]1` it was 1.56 µg/mL (≈ 2.25 µM). In the case of `CC1(C)S[C@@H]2[C@H](NC(=O)[C@H](NC(=O)CC3=NCCN3)c3ccccc3)C(=O)N2[C@H]1c1nnn[nH]1`, the MIC was 3.12 µg/mL (≈ 6.45 µM). On the same count and under the same terms, the figure for `CC(=N)NCC(=O)N[C@@H](C(=O)N[C@@H]1C(=O)N2[C@@H]1SC(C)(C)[C@@H]2c1nnn[nH]1)c1ccccc1` is 1.56 µg/mL (≈ 3.31 µM); for `CC1(C)S[C@@H]2[C@H](NC(=O)[C@H](NS(=O)(=O)Cc3ccccc3)c3ccccc3)C(=O)N2[C@H]1c1nn[nH]n1` it is 0.39 µg/mL (≈ 0.739 µM); for `CC1(C)S[C@@H]2[C@H](NC(=O)[C@H](NS(=O)(=O)c3ccc(Cl)cc3)c3ccccc3)C(=O)N2[C@H]1c1nn[nH]n1` it is 1.56 µg/mL (≈ 2.85 µM). Still for that read-out and setting: in the case of `CC1(C)S[C@@H]2[C@H](NC(=O)[C@H](NS(=O)(=O)c3ccc([N+](=O)[O-])cc3)c3ccccc3)C(=O)N2[C@H]1c1nn[nH]n1` it was 1.56 µg/mL (≈ 2.79 µM); in that of `CC1(C)S[C@@H]2[C@H](NC(=O)CN)C(=O)N2[C@H]1c1nnn[nH]1` [2-aminoacetyl], 200 µg/mL (≈ 673 µM); in that of `CC1(C)S[C@@H]2[C@H](NC(=O)C(NC(=O)CSc3ccncc3)c3ccccc3)C(=O)N2[C@H]1c1nn[nH]n1` (some centres unmarked) [6-(2-[2-(4-Pyridylthio)acetamido]-2-phenylacetamido)-2,2-dimethyl-3-(5-tetrazolyl)penam], 100 µg/mL (≈ 191 µM). Still for that read-out and setting: the figure for `CC1(C)S[C@@H]2[C@H](NC(=O)[C@H](NC(=O)CC(=N)N)c3ccccc3)C(=O)N2[C@H]1c1nn[nH]n1` [D-2-(2-[guanyl]acetamido)-2-phenylacetyl, 6-(D-2-[2-Guanylacetamido]-2-phenylacetamido)-2,2-dimethyl-3-(5-tetrazolyl)penam] is 12.5 µg/mL (≈ 27.3 µM). As to `CC(=O)N[C@@H](C(=O)N[C@@H]1C(=O)N2[C@@H]1SC(C)(C)[C@@H]2c1nnn[nH]1)c1ccccc1` [D-2-(acetamido)-2-phenylacetyl], the MIC is 0.78 µg/mL (≈ 1.88 µM).

For `CC1(C)S[C@@H]2[C@H](NC(=O)[C@H](NS(C)(=O)=O)c3ccccc3)C(=O)N2[C@H]1c1nn[nH]n1` [D-2-(methanesulfonamido)-2-phenylacetyl, 6-(D-2-Methanesulfonamido-2-phenylacetamido)-2,2-dimethyl-3-(5-tetrazolyl)penam], the minimum inhibitory concentration (MIC) was 1.56 µg/mL (≈ 3.45 µM). Take `CCCS(=O)(=O)N[C@@H](C(=O)N[C@@H]1C(=O)N2[C@@H]1SC(C)(C)[C@@H]2c1nn[nH]n1)c1ccccc1` [D-2-(propanesulfonamido)-2-phenylacetyl]: the MIC turned out to be 0.78 µg/mL (≈ 1.63 µM). On the same count and under the same terms, the figure for `COc1ccc([C@@H](N)C(=O)N[C@@H]2C(=O)N3[C@@H]2SC(C)(C)[C@@H]3c2nnn[nH]2)cc1` [D-2-amino-2-(p-methoxyphenyl)acetyl] is < 0.1 µg/mL. On the same count and under the same terms, the figure for `CC1(C)S[C@@H]2[C@H](NC(=O)[C@H](N)Cc3c[nH]c4ccccc34)C(=O)N2[C@H]1c1nnn[nH]1` [D-2-amino-3-(3-indolyl)propionyl] is 6.25 µg/mL (≈ 14.7 µM); for `CC1(C)S[C@@H]2[C@H](NC(=O)[C@H](O)c3ccccc3)C(=O)N2[C@H]1c1nnn[nH]1` [D-2-hydroxy-2-phenylacetyl, 6-(D-2-Hydroxy-2-phenylacetamido)-2,2-dimethyl-3-(5-tetrazolyl)penam] it is < 0.1 µg/mL; for `CC1(C)S[C@@H]2[C@H](NC(=O)[C@@H](O)c3ccccc3)C(=O)N2[C@H]1c1nnn[nH]1` [L-2-hydroxy-2-phenylacetyl, 6-(L-2-Hydroxy-2-phenylacetamido)-2,2-dimethyl-3-(5-tetrazolyl)penam] it is < 0.1 µg/mL.

Staying with this assay, now noted: Staphylococcus aureus; Table IV, values marked *; read-out: MIC against Staph. aureus.
`CC1(C)S[C@@H]2[C@H](N3C(=O)[C@@H](c4ccc(O)cc4)NC3(C)C)C(=O)N2[C@H]1c1nnn[nH]1` [6-(2,2-Dimethyl-5-oxo-4-[p-hydroxyphenyl]-1-imidazolidinyl)-2,2-dimethyl-3-(5-tetrazolyl)penam]: the MIC came out at 0.78 µg/mL (≈ 1.82 µM).

Consider `CC1(C)S[C@@H]2[C@H](N3C(=O)[C@@H](c4ccccc4)NC3(C)C)C(=O)N2[C@H]1c1nnn[nH]1` [6-(2,2-Dimethyl-5-oxo-4-phenyl-1-imidazolidinyl)-2,2-dimethyl-3-(5-tetrazolyl)penam], for which the MIC worked out at 1.56 µg/mL (≈ 3.77 µM).

The assay is the same for the next values; noted with them: Table III; two-fold serial dilution, Brain-Heart Infusion broth, overnight.
On to `CN(C)C=NCC(=O)N[C@@H](C(=O)NC1C(=O)N2C1SC(C)(C)C2c1nnn[nH]1)c1ccccc1` (stereo partly drawn) [6-(D-2-[2-(dimethylaminoethyleneamino)acetamido]-2-phenylacetamido-2,2-dimethyl-3-(5-tetrazolyl)penam], for which the “MIC vs. Staph. aureus” value turned out to be 6.25 µg/mL (≈ 12.9 µM).

Another assay deals with Streptococcus pyogenes. Nature of the assay: In vitro minimum inhibitory concentration (MIC) vs. Strep. pyogenes. The assay is classed as cell-based. To be noted: Streptococcus pyogenes, read-out: MIC vs. Strep. pyogenes. Put shortly: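 Broth inoculated with bacteria and test antibiotic, incubated overnight and read visually; MIC is the lowest concentration preventing turbidity. Test preparations also contain some of the corresponding tetrazole tautomer.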
For the compound `CC1(C)S[C@@H]2[C@H](NC(=O)[C@H](N)C3CCCO3)C(=O)N2[C@H]1c1nnn[nH]1` (stereo partly drawn) [D-2-amino-2-(2-tetrahydrofuryl)acetyl], the MIC is < 0.1 µg/mL. The same measure, in the same setting: in the case of `CC1(C)S[C@@H]2[C@H](NC(=O)[C@H](N)c3cccc(N)c3)C(=O)N2[C@H]1c1nnn[nH]1` [D-2-amino-(3-aminophenyl)acetyl, 6-(D-2-Amino-2-[3-aminophenyl]acetamido)-2,2-dimethyl-3-(5-tetrazolyl)penam] it was < 0.1 µg/mL; in that of `CC1(C)S[C@@H]2[C@H](NC(=O)[C@H](NC(N)=O)c3ccccc3)C(=O)N2[C@H]1c1nn[nH]n1` [D-2-ureido-2-phenylacetyl, 6-(D-2-Ureido-2-phenylacetamido)-2,2-dimethyl-3-(5-tetrazolyl)-penam], 0.1 µg/mL (≈ 0.24 µM). Same read-out and setting: the figure for `CC1(C)S[C@@H]2[C@H](NC(=O)Oc3ccccc3)C(=O)N2[C@H]1c1nnn[nH]1` [phenoxycarbonyl] is < 0.1 µg/mL; for `CC1(C)S[C@@H]2[C@H](NC(=O)C(=O)c3ccccc3)C(=O)N2[C@H]1c1nnn[nH]1` [phenylglyoxyloyl] it is < 0.1 µg/mL; for `CC1(C)S[C@@H]2[C@H](NC(=O)C(=O)Cc3ccccc3)C(=O)N2[C@H]1c1nnn[nH]1` [phenylpyruvoyl, 6-Phenylpyruvamido-2,2-dimethyl-3-(5-tetrazolyl)penam] it is < 0.1 µg/mL.

The same assay, now with this note: Streptococcus pyogenes; Table II; two-fold serial dilution, Brain-Heart Infusion broth, overnight; read-out: MIC vs. Strep. pyogenes.
For `CC1(C)S[C@@H]2[C@H](NC(=O)[C@H](N)c3ccc(F)cc3)C(=O)N2[C@H]1c1nnn[nH]1` [D-2-amino-2-(p-fluorophenyl)acetyl, 6-(D-2-amino-2-[p-fluorophenyl]acetamido)-2,2-dimethyl-3-(5-tetrazolyl)penam], the MIC turned out to be 3.12 µg/mL (≈ 7.97 µM). For `CC1(C)S[C@@H]2[C@H](NC(=O)[C@H](N)c3ccc(N)cc3)C(=O)N2[C@H]1c1nnn[nH]1` [D-2-amino-(4-aminophenyl)acetyl, 6-(D-2-Amino-2-[4-aminophenyl]acetamido)-2,2-dimethyl-3-(5-tetrazolyl)penam], the MIC was 0.39 µg/mL (≈ 1 µM). On the same count and under the same terms, in the case of `CC1(C)S[C@@H]2[C@H](NC(=O)[C@@H](c3ccccc3)N3C(=O)c4ccccc4C3=O)C(=O)N2[C@H]1c1nnn[nH]1` [D-2-phthalimido-2-phenylacetyl, 6-(D-2-Phthalimido-2-phenylacetamido)-2,2-dimethyl-3-(5-tetrazolyl)penam] it was 0.004 µg/mL (≈ 0.00794 µM). Same read-out and setting: in the case of `CC1(C)S[C@@H]2[C@H](NC(=O)[C@H](NS(=O)(=O)O)c3ccccc3)C(=O)N2[C@H]1c1nnn[nH]1` [D-2-sulfoamino-2-phenylacetyl, 6-(D-2-sulfoamino-2-phenylacetamido)-2,2-dimethyl-3-(5-tetrazolyl)penam] it was 12.5 µg/mL (≈ 27.6 µM); in that of `CC1(C)S[C@@H]2[C@H](NC(=O)[C@@H](N)c3ccc(O)cc3)C(=O)N2[C@H]1c1nnn[nH]1` [L-2-amino-2-(p-hydroxyphenyl)acetyl], < 0.1 µg/mL; in that of `CC1(C)S[C@@H]2[C@H](NC(=O)[C@@H](N)Cc3ccc(O)cc3)C(=O)N2[C@H]1c1nn[nH]n1` [L-2-amino-3-(p-hydroxyphenyl)propionyl, 6-(L-2-amino-3-[4-hydroxyphenyl]propionamido)-2,2-dimethyl-3-(5-tetrazoyl)penam], 0.2 µg/mL (≈ 0.496 µM). Regarding `CC1(C)S[C@@H]2[C@H](NC(=O)NC(=O)c3ccco3)C(=O)N2[C@H]1c1nn[nH]n1` [N-(2-furoyl)carbamoyl], the MIC was determined as 1.56 µg/mL (≈ 4.13 µM). Consider `Cc1ccc(S(=O)(=O)NC(=O)N[C@@H]2C(=O)N3[C@@H]2SC(C)(C)[C@@H]3c2nn[nH]n2)cc1` [N-(p-toluenesulfonyl)carbomoyl], for which the MIC was 1.56 µg/mL (≈ 3.57 µM). Same read-out and setting: in the case of `CC(=O)NC(=O)N[C@@H]1C(=O)N2[C@@H]1SC(C)(C)[C@@H]2c1nn[nH]n1` [N-acetylcarbomoyl] it was 1.56 µg/mL (≈ 4.79 µM).

The values above are taken from US4115385A, “Antibacterial 3-(5-tetrazolyl) penam compounds” (Pfizer Inc., priority 1977, dated 1978).
